Experiment in all cases: DTP human tumour cell line panel, 48 h
For experiment [1], the system named is ACHN renal.
In experiment [2] the test system is HS 578T breast.
Experiment [3] relates to MDA-MB-231 breast.
In experiment [4] the test system is OVCAR-5 ovarian.
The test system of experiment [5] is OVCAR-8 ovarian.
Experiment [6] concerns RPMI-8226 leukemia.
The subject of experiment [7] is SK-MEL-2 melanoma.
The test system of experiment [8] is SK-MEL-5 melanoma.
For experiment [9], the system named is UACC-257 melanoma.
For experiment [10], the system named is UO-31 renal.

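All cell lines were grown in 96-well plates and treated with compound for 48 hours. At the GI50, growth is halved. Definition used: TGI = concentration required for complete inhibition of growth.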

In the case of `N=C(N)c1ccc(-c2ccc(-c3cc(Cl)cc(Cl)c3)o2)nc1`, the GI50 (in general, the concentration that inhibits growth by half) in experiment [1] is 1.81 µM; in experiment [2], 1.87 µM; in experiment [3], 1.65 µM; in experiment [4], 1.73 µM; in [5], 1.88 µM; in experiment [6], 2.03 µM. For the same compound, the GI50 was 2.09 µM in [7], 1.77 µM in experiment [8], 1.84 µM in experiment [9] and 1.54 µM in experiment [10]. In addition, the TGI (commonly the concentration at which net growth stops) in experiment [1] stood at 3.36 µM; in [2], 3.93 µM; in experiment [3], 3.3 µM; in experiment [4], 3.43 µM; in [5], 3.83 µM; in experiment [6] it was 4.33 µM. In addition, the concentration for total growth inhibition (TGI) in experiment [7] is 3.9 µM; in experiment [8] it was 3.25 µM; in experiment [9], 3.59 µM; in [10], 3.11 µM.

Consider `COc1ccc(/C(=C2/O[C@@H]([C@H]3COC(C)(C)O3)[C@H]3OC(C)(C)O[C@@H]23)c2cc(OC)c(OC)c(OC)c2)cc1O`, for which the GI50 in experiment [1] is 15.4 µM; in experiment [2], 6.97 µM; in [3], 9.71 µM; in experiment [4] it was 59.6 µM; in experiment [5], 8.56 µM; in [6] it was 4.82 µM. The GI50 in experiment [7] is 3.26 µM; in experiment [8], 4.12 µM; in [9], 39.4 µM; in [10], 21.8 µM. The TGI was over 100 µM in experiment [1]; 67.9 µM in [2]; 50.1 µM in experiment [3]; over 100 µM in [4]; over 100 µM in [5]; 34 µM in [6]. For the same compound, the TGI was 8.44 µM in experiment [7], 15 µM in experiment [8], over 100 µM in experiment [9] and 70.4 µM in [10].

Turning to `COc1cc(C=C2C(C)=NN(c3cccc(Cl)c3)C23SCC(=O)N3c2nc3ccccc3s2)ccc1O` (centres undefined), the TGI in experiment [1] was 77.5 µM; in experiment [2], 32.4 µM; in experiment [3], 54.6 µM; in experiment [4], over 100 µM; in experiment [5], 50.5 µM; in experiment [6], 30.7 µM. The total growth inhibition concentration (TGI) in experiment [7] was 39.5 µM; in experiment [8], 40.7 µM; in experiment [9], over 100 µM; in experiment [10], over 92.2 µM.

For `COc1ccc2nc(-c3ccc(-c4noc(-c5cc(OC)c(OC)c(OC)c5)n4)cc3)[nH]c2c1`, the GI50 in experiment [1] is 28.2 µM; in experiment [2] it was 9.49 µM; in experiment [3], 2.65 µM; in [4], 16.7 µM; in experiment [5], 4.93 µM; in experiment [6] it was 6.02 µM. In addition, the GI50 in [7] was 18.9 µM; in [8], 3.25 µM; in [9], 17.1 µM; in experiment [10], 18.9 µM. Further, the TGI is over 100 µM in experiment [1]; 55.7 µM in experiment [2]; 13.9 µM in [3]; 53.8 µM in experiment [4]; 26.4 µM in [5]; over 100 µM in experiment [6]. Besides, the concentration for total growth inhibition (TGI) in experiment [7] turned out to be 51.1 µM; in experiment [8], 17.3 µM; in experiment [9] it was 46.9 µM; in experiment [10] it was 38.7 µM.

Turning to `CNC(=O)OC(C)CN1c2ccccc2Sc2ccc(Cl)cc21` (centres undefined), the TGI in experiment [1], in experiment [2], in [3], in experiment [4], in [5] and in experiment [6] was over 10 µM each time. Also, the TGI in experiment [7], in experiment [8] and in experiment [10] was over 10 µM throughout.

For `Cc1nc(N)nc(N)c1-c1ccc(Cl)c(Cl)c1`, the TGI in experiment [1] is over 100 µM; in experiment [2] it was 58 µM; in [3], over 100 µM; in experiment [4], over 100 µM; in [5], over 100 µM; in experiment [6] it was over 100 µM. Also, the TGI is over 90.6 µM in [7], over 44.7 µM in experiment [8], over 100 µM in experiment [9] and over 89.3 µM in experiment [10].

`CN1CC[C@@]2(c3cccc(O)c3)CC(=O)/C(=C/c3ccccc3)[C@H]1C2`: the concentration for total growth inhibition (TGI) was 22.6 µM in [1]; 9.81 µM in experiment [2]; 23.6 µM in experiment [3]; 32.2 µM in experiment [4]; over 48 µM in [5]; 7.04 µM in experiment [6]. For the same compound, the TGI in experiment [7] was 87.2 µM; in [8] it was over 54.8 µM; in experiment [9], 30.8 µM; in [10], 25.5 µM.

For `Cn1c(=O)c2c(nc(-n3nc(-c4ccc(Cl)cc4)cc3N)n2C)n(C)c1=O`, the concentration for total growth inhibition (TGI) in [1], in experiment [2], in experiment [3], in [4], in [5] and in experiment [6] was over 100 µM each time. The concentration for total growth inhibition (TGI) in experiment [7], in experiment [8], in experiment [9] and in [10] was over 100 µM throughout.

The values are drawn from PubChem BioAssay (NCI).
